{"source": "patent US6461997B1", "about": "“Triazole sulfones having herbicidal activity” (Monsanto Technology LLC, priority 1999, dated 2002)", "key": {"[1]": {"test_system": "BROTE (downy brome)", "assay": "Post-emergence herbicidal activity, cool season", "format": "in vivo, Bromus tectorum", "conditions": "abraded plants sprayed at 300, 100, 30 and 10 g/ha; about 14 days after treatment", "outline": "(§1)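 Seedlings grown from seed in topsoil pots were treated 9 to 14 days after planting, foliage first abraded with garnet particles, then sprayed with test compound in 50:50 acetone/water at 300, 100, 30 and 10 g/ha (3,100 l/ha). Kept at 18/13° C. day/night, percent inhibition versus abraded unsprayed controls was scored about 14 days later and GR80 assigned.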"}, "[2]": {"test_system": "ALOMY (blackgrass)", "assay": "Post-emergence herbicidal activity, cool season", "format": "in vivo, Alopecurus myosuroides", "conditions": "abraded plants sprayed at 300, 100, 30 and 10 g/ha; about 14 days after treatment", "outline": "as §1"}, "[3]": {"test_system": "CHEAL (common lambsquarters)", "assay": "Pre-plant incorporated (PPI) herbicidal activity, warm season", "format": "in vivo, Chenopodium album", "conditions": "for PPI activity (GR80) CHEAL: pre-plant incorporated, GR80 = lowest tested rate with 80% or greater inhibition, approx. 14 days after treating, 30/21° C.", "experimental": "(§2) In another set of tests, the pre-plant incorporated (PPI) activity of compounds of this invention was evaluated on the same species as for the pre-emergence tests described above. In the PPI tests the following procedure, designed to simulate PPI application, was used.\n(§3) A pre-prepared topsoil mixture (described above) was placed in a pot and compacted to a depth of 1.0 to 1.25 cm from the top of the pot. Seeds of each of several monocotyledonous and dicotyledonous annual plant species were placed on top of the soil. A sufficient quantity of soil to cover the seeds and level fill the pot was weighed into an open container. A known amount of the test compound was dissolved or suspended in an organic solvent and applied by spraying to this cover soil. The cover soil was thoroughly mixed to distribute the test compound throughout the cover soil, and was then applied as a cover layer over the seeds. Untreated soil was used as a cover layer for control pots. After treatment the plants were placed in a greenhouse where they received 0.64 cm of overhead irrigation. All subsequent watering consisted of a light overhead mist and/or subirrigation as needed for germination and growth. Tables 9 and 10 below relate to warm season plant species which were placed after pre-emergence treatment in a greenhouse with a 30/21° C. day/night temperature regime. Tables 11 and 12 below relates to cool season plant species placed after pre-emergence treatment in a greenhouse or growth chamber with an 18/13° C. day/night temperature regime. Only the compounds of Examples 1, 6, 8, 11, 13 and 15-20 were included in PPI tests.\n(§4) Approximately 14 days after planting and treating, the plants were observed and herbicidal efficacy recorded as percent inhibition by comparison with untreated plants."}, "[4]": {"test_system": "CIRAR (canada thistle (seedling))", "assay": "Pre-emergence herbicidal activity, warm season", "format": "in vivo, Cirsium arvense", "conditions": "GR80 = lowest tested rate (300, 100, 30, 10 g/ha) with 80% or greater inhibition; approx. 14 days after treating; 30/21° C.", "outline": "(§5)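 Seeds sown in sterilised fertilised topsoil received surface-applied compound in 50:50 acetone/water, typically at 300, 100, 30 and 10 g/ha, then greenhouse-grown at 30/21° C (warm-season species) or 18/13° C (cool-season species). Percent inhibition versus untreated plants was scored at about 14 days, giving GR80; an asterisk marks activity short of 80% at the top rate.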"}, "[5]": {"test_system": "SETVI (green foxtail)", "assay": "Pre-emergence herbicidal activity, cool season", "format": "in vivo, Setaria viridis", "conditions": "GR80 = lowest tested rate (300, 100, 30, 10 g/ha) with 80% or greater inhibition; approx. 14 days after treating; 18/13° C.", "outline": "as §5"}, "[6]": {"test_system": "AEGCY (jointed goatgrass)", "assay": "Pre-plant incorporated (PPI) herbicidal activity, cool season", "format": "in vivo, Aegilops cylindrica", "conditions": "for PPI activity GR80, AEGCY: pre-plant incorporated, lowest tested rate with 80% or greater inhibition, about 14 days", "experimental": "as §2, §3, §4"}, "[7]": {"test_system": "XANST (cocklebur)", "assay": "Pre-plant incorporated (PPI) herbicidal activity, warm season", "format": "in vivo, Xanthium strumarium", "conditions": "Xanthium strumarium, PPI application, read-out: Percent inhibition XANST", "experimental": "as §2, §3, §4"}, "[8]": {"test_system": "AGRRE (quackgrass (seedling))", "assay": "Post-emergence herbicidal activity, cool season", "format": "in vivo, Elymus repens", "conditions": "abraded plants sprayed at 300, 100, 30 and 10 g/ha; about 14 days after treatment", "outline": "as §1"}, "[9]": {"test_system": "PANMI (wild proso millet)", "assay": "Pre-emergence herbicidal activity, warm season", "format": "in vivo, Panicum miliaceum", "conditions": "GR80 = lowest tested rate (300, 100, 30, 10 g/ha) with 80% or greater inhibition; approx. 14 days after treating; 30/21° C.", "outline": "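Read-out: GR80, derived from percent growth inhibition relative to untreated plants at roughly 14 days after planting and treatment. Compounds went onto the surface of freshly seeded soil at 10–300 g/ha. Day/night regimes were 30/21 °C for millet and crabgrass, 18/13 °C for blackgrass and buckwheat.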"}, "[10]": {"conditions": "Aegilops cylindrica, weed, PPI application, read-out: Percent inhibition AEGCY"}}, "data": [{"smiles": "C=C(Br)CC(F)(F)S(=O)(=O)c1ncn(C(=O)N(CC)CC)n1", "note": "[Example 19]", "values": [{"measurement": "Post-emergence activity GR80, BROTE", "setting": "[1]", "result": "[empty]"}, {"measurement": "Post-emergence activity GR80, ALOMY", "setting": "[2]", "result": "[empty]"}, {"measurement": "PPI activity (GR80) CHEAL", "setting": "[3]", "result": 100, "unit": "g/ha"}, {"measurement": "Pre-emergence activity (GR80) CIRAR", "setting": "[4]", "result": 300, "unit": "g/ha"}, {"measurement": "Pre-emergence activity (GR80) SETVI", "setting": "[5]", "result": 100, "unit": "g/ha"}, {"measurement": "inhibition at 10 g/ha", "setting": "[6]; Aegilops cylindrica, weed, PPI application, 10 g/ha, read-out: Percent inhibition AEGCY", "result": 0, "unit": "%"}, {"measurement": "inhibition at 30 g/ha", "setting": "[6]; [10]", "result": 0, "unit": "%"}, {"measurement": "inhibition at 100 g/ha", "setting": "[6]; [10]", "result": 20, "unit": "%"}, {"measurement": "inhibition at 300 g/ha", "setting": "[6]; [10]", "result": 50, "unit": "%"}, {"measurement": "inhibition at 900 g/ha", "setting": "[6]; [10]", "result": 20, "unit": "%"}, {"measurement": "PPI activity GR80, AEGCY", "setting": "[6]", "result": 300, "unit": "g/ha"}, {"measurement": "inhibition at 10 g/ha", "setting": "[7]; 10 g/ha", "result": 0, "unit": "%"}, {"measurement": "inhibition at 30 g/ha", "setting": "[7]", "result": 0, "unit": "%"}, {"measurement": "inhibition at 100 g/ha", "setting": "[7]", "result": 0, "unit": "%"}, {"measurement": "inhibition at 300 g/ha", "setting": "[7]", "result": 0, "unit": "%"}, {"measurement": "inhibition at 900 g/ha", "setting": "[7]", "result": 90, "unit": "%"}, {"measurement": "Post-emergence activity GR80, AGRRE", "setting": "[8]", "result": "[empty]"}, {"measurement": "Pre-emergence activity (GR80) PANMI", "setting": "[9]", "result": 100, "unit": "g/ha"}]}, {"smiles": "CCSC(F)(F)S(=O)(=O)c1ncn(C(=O)N(CC)CC)n1", "note": "[Example 8, 1-(N,N-diethylcarbamoyl)-3-[difluoro(ethylthio)methylsulfonyl]-1,2,4-triazole]", "values": [{"measurement": "Post-emergence activity GR80, BROTE", "setting": "[1]", "result": "[empty]"}, {"measurement": "Post-emergence activity GR80, ALOMY", "setting": "[2]", "result": "[empty]"}, {"measurement": "inhibition at 30 g/ha", "setting": "[3]; Chenopodium album, PPI application, 30 g/ha, read-out: Percent inhibition CHEAL", "result": 70, "unit": "%"}, {"measurement": "inhibition at 100 g/ha", "setting": "[3]; Chenopodium album, PPI application, 100 g/ha, read-out: Percent inhibition CHEAL", "result": 100, "unit": "%"}, {"measurement": "inhibition at 300 g/ha", "setting": "[3]; Chenopodium album, PPI application, 300 g/ha, read-out: Percent inhibition CHEAL", "result": 100, "unit": "%"}, {"measurement": "inhibition at 900 g/ha", "setting": "[3]; Chenopodium album, PPI application, 900 g/ha, read-out: Percent inhibition CHEAL", "result": 100, "unit": "%"}, {"measurement": "PPI activity (GR80) CHEAL", "setting": "[3]", "result": 30, "unit": "g/ha"}, {"measurement": "Pre-emergence activity (GR80) CIRAR", "setting": "[4]", "result": 300, "unit": "g/ha"}, {"measurement": "Pre-emergence activity (GR80) SETVI", "setting": "[5]", "result": 100, "unit": "g/ha"}, {"measurement": "inhibition at 30 g/ha", "setting": "[6]; [10]", "result": 0, "unit": "%"}, {"measurement": "inhibition at 100 g/ha", "setting": "[6]; [10]", "result": 50, "unit": "%"}, {"measurement": "inhibition at 300 g/ha", "setting": "[6]; [10]", "result": 40, "unit": "%"}, {"measurement": "inhibition at 900 g/ha", "setting": "[6]; [10]", "result": 20, "unit": "%"}, {"measurement": "PPI activity GR80, AEGCY", "setting": "[6]", "result": "[empty]"}, {"measurement": "inhibition at 30 g/ha", "setting": "[7]", "result": 0, "unit": "%"}, {"measurement": "inhibition at 100 g/ha", "setting": "[7]", "result": 0, "unit": "%"}, {"measurement": "inhibition at 300 g/ha", "setting": "[7]", "result": 20, "unit": "%"}, {"measurement": "inhibition at 900 g/ha", "setting": "[7]", "result": 50, "unit": "%"}, {"measurement": "Post-emergence activity GR80, AGRRE", "setting": "[8]", "result": "[empty]"}, {"measurement": "Pre-emergence activity (GR80) PANMI", "setting": "[9]", "result": 100, "unit": "g/ha"}]}]}
